The nature of test [1]: Sensory panel evaluation of tomato soups with reduced salt (Example 9). The protocol:
10 gram of each composition was mixed with 100 ml hot water to obtain tomato soups. The different soups were tasted and evaluated by a sensory panel.

A short description of test [2]: Professional panel tasting of sweet strawberry milk samples of different fat content (Example 10). As to conditions: for taste description versus same milk without the substance: 6% sucrose, strawberry flavour, 10 ppm. The protocol: Six sweet milk samples, containing 6% sucrose, flavoured with a strawberry flavour were prepared:
1. Zero fat containing milk drink
2. Zero fat containing milk drink+10 ppm gluconyl ethanolamine (as prepared in example 2)
4. 1.5% fat milk+10 ppm gluconyl ethanolamine (as prepared in example 2)
6. Full fat milk+10 ppm gluconyl ethanolamine (as prepared in example 2)
(§1) All samples were tasted by a professional panel. There was general agreement about the differences in taste between the samples.

Test [3] is described as follows: Professional panel evaluation of cigarettes with tobacco casings (Example 12). As to conditions: casing B (2 g per 100 g casing mixture, 1 g/kg tobacco) versus casing A without. The protocol:
The following mixtures were used as casings to improve the tobacco taste and improvement of the body of the smoke:
dosage of this mixture is 1 g/kg tobacco
Cigarettes were prepared from both types of tobacco, which were evaluated by a professional panel.

Test [4] can be described thus: Professional panel tasting of vinaigrette (Example 15). The note with it: 30 ppm, original: strongly acidic, acetic acid-like, thin, peaky. The procedure: A vinaigrette was prepared using 815.8 g of water, 100 g of sunflower oil, 12 g of salt, 30 g of sugar, 45 g of vinegar (12% acetic acid), 4 g of xanthan gum and 0.2 g of turmeric powder by mixing all ingredients intensively to obtain a homogeneous emulsion.
To a part of the vinaigrette 30 ppm of N-gluconyl ethanolamine (as prepared in example 2) was added.
Both vinaigrettes were tasted by a professional panel.
The original vinaigrette was described as strongly acidic, acetic acid-like, thin, peaky.

Test [5] is described as follows: Professional panel tasting of strawberry ice cream, 8% vegetable fat (Example 6). As to conditions: sample B: Ice cream (8% vegetable fat)+strawberry flavour+10 ppm, reference A without: sweet, creamy aftertaste. The procedure: Two ice cream (8% vegetable fat) samples were prepared: • A: Ice cream+strawberry flavour • B: Ice cream+strawberry flavour+10 ppm N-gluconyl ethanolamine (as prepared in Example 2)
The ice creams were tasted by a professional panel. There was general agreement among the group on the taste descriptions: • A: sweet, strawberry, creamy aftertaste.

Test [6] can be described thus: Professional panel tasting of standard chicken soup (Example 8). As to conditions: 7 ppm, versus soup without. The procedure:
A standard chicken soup was prepared. The quantity was split in two and to one half 7 ppm of N-gluconyl ethanolamine, as prepared in example 2, was added. The soups were tasted by a professional panel.

The nature of test [7]: Professional panel tasting of ketchup (Example 14). As to conditions: ketchup pH 3.5, 20 ppm; base: strongly acidic, acetic acid-like, flat tomato profile. The procedure: Ketchup was prepared using 506 g of water, 150 g of tomato puree (28-30 Brix), 30 g of modified starch (Colflo 67 ex National Starch), 22 g of salt, 2 g of stabilizer Deltagel CE 1364) and 115 g of vinegar (12% acetic acid in water), by first mixing the dry ingredients, subsequently adding water and stirring until a homogeneous paste was obtained. Tomato puree and vinegar were than added and the mixture was stirred again and heated to a temperature of 95° C. for 1 minute. The mixture was filled off hot and allowed to cool down.
The pH was determined to be 3.5.
Part of the ketchup was mixed with 20 ppm N-gluconyl ethanolamine (as prepared in example 2).
The two ketchups were tasted and compared by a professional panel.
The ketchup base was described as strongly acidic, acetic acid-like, with a flat tomato profile.

Test [8] in a line: Professional panel tasting of 0% fat strawberry yoghurt (Example 4). The procedure:
Four yoghurt samples were prepared: • A: Yoghurt 0% fat+strawberry flavour+sucralose (25%) 300 ppm • B: Yoghurt 0% fat+strawberry flavour+sucralose (25%) 300 ppm+10 ppm N-gluconyl ethanolamme (as prepared in Example 2) • C: Yoghurt 0% fat+strawberry flavour+4% sugar • D: Yoghurt 0% fat+strawberry flavour+4% sugar+10 ppm N-gluconyl ethanolamine (as prepared in Example 2)
(§2) The yoghurts were tasted by a professional panel.

A short description of test [9]: Professional panel tasting of still lemon beverages (Example 7). As to conditions: sample C: tap water with sucrose (6.2 brix)+lemon flavour+30 ppm; B (6.2 brix, without): empty, less sweet; A (7 brix): sweet. The procedure: Three still beverages were prepared: • A: Tap water with sucrose (7 brix) and 1.5 g/l of citric acid+lemon flavour • B: Tap water with sucrose (6.2 brix) and 1.5 g/l of citric acid+lemon flavour • C: Tap water with sucrose (6.2 brix)+lemon flavour+N-gluconyl ethanolamine 30 ppm (as prepared in Example 2)
The beverages were tasted by a professional panel.

Test [10] can be described thus: Professional panel tasting of instant vegetable soup of different fat content (Example 11). The procedure:
Four samples of standard instant vegetable soup were prepared:
1. Soup containing 2% fat
2. Soup containing 2% fat+7 ppm gluconyl ethanolamine (as prepared in example 2)
3. Soup containing 4% fat
4. Soup containing 4% fat+7 ppm gluconyl ethanolamine (as prepared in example 2)
5. Soup containing 6% fat
6. Soup containing 6% fat+7 ppm gluconyl ethanolamine (as prepared in example 2)
as §1

Test [11] can be described thus: Professional panel tasting of salted potato chips (Example 13). The note with it: potato chips with salt (0.7%) and 100 ppm; reference chips: salty, slightly rancid, oily-greasy and cardboard-like. An excerpt:
One sample of potato chips was seasoned with salt (0.7%).
Another sample of potato chips was seasoned with salt (0.7%) and flavoured with 100 ppm
N-gluconyl ethanolamine (as prepared in example 2).
The chips were tasted by a professional panel.
The reference chips were described as salty, slightly rancid, oily-greasy and cardboard-like.

Test [12] is described as follows: Professional panel tasting of 3% fat strawberry yoghurt (Example 5). As to conditions: sample B: Yoghurt 3% fat+strawberry flavour+4% sugar+10 ppm; reference A without: tart, acidic. The procedure:
Two yoghurt samples were prepared: • A: Yoghurt 3% fat+strawberry flavour+4% sugar • B: Yoghurt 3% fat+strawberry flavour+4% sugar+10 ppm N-gluconyl ethanolamine (as prepared in Example 2)
as §2

Molecules are shown by their SMILES.

As for `O=C(NCCOP(=O)(O)O)[C@H](O)[C@@H](O)[C@H](O)[C@H](O)CO` [N-gluconyl ethanolamine phosphate], in test [1] (product C (3.5 g salt, 3.5 g Example 3 product per 100 g) versus product A (control, 7 g salt)), the perceived saltiness entry is “comparable to that of product A”. Further, the panel preference entry in test [1] (product C: tomato soup powder, 50% reduced salt, 3.5 g of Example 3 product per 100 g, 10 g in 100 ml hot water, versus product B (maltodextrin instead)) is “clearly preferred over product B”. Besides, the taste description result in [1] (product C: tomato soup, 50% reduced salt, 3.5 g Example 3 product per 100 g powder) was ““more taste”, “more impact”, “more umami”, “more kokumi” and “salivating””.
For `O=C(NCCO)[C@H](O)[C@@H](O)[C@H](O)[C@H](O)CO` [N-gluconyl ethanolamine], the “taste comparison with higher-fat milk without the substance” value in test [2] (sample 2 (zero fat+10 ppm) versus sample 3 (1.5% fat milk)) was “quite similar and the main difference was that sample 2 and 4 were slightly more sweet”; in [2] (sample 4 (1.5% fat+10 ppm) versus sample 5 (full fat milk)) it was “quite similar and the main difference was that sample 2 and 4 were slightly more sweet”. Also, the “taste description versus same milk without the substance” value in test [2] (sample 2: zero fat milk drink, versus sample 1) was “fuller, more round natural taste, more creamy and more sweet”; in test [2] (sample 4: 1.5% fat milk, versus sample 3), “fuller, more round natural taste, more creamy and more sweet”; in [2] (sample 6: full fat milk, versus sample 5) it was “fuller, more round natural taste, more creamy and more sweet”. Further, the “smoke evaluation of cigarettes” value in [3] was “significantly more “body” in the smoke and significantly more “expanding” tobacco smoke”. The taste description result in [4] was “acidic, more rounded, more full, more fat impression, more smooth”; in test [5], “fuller, more round and natural taste, enhanced sweetness and creaminess”; in test [6], “more tasteful, more complete, more body, more fatty”; in test [7] it was “mildly acidic, less acetic acid-like, exhibiting more sun-ripened tomato character, more fullness”; in [8] (sample B: Yoghurt 0% fat+strawberry flavour+sucralose (25%) 300 ppm+10 ppm, reference A without: sweet, bitter, metallic, aftertaste), “fuller more round and natural taste, more sugar sweetness, significantly less bitter metallic aftertaste”; in test [8] (sample D: Yoghurt 0% fat+strawberry flavour+4% sugar+10 ppm, reference C without: tart, acidic), “fuller more round and natural taste, more intense sweet”. For the same compound, the taste description entry is “fuller, more round and natural taste, more intense sweet taste than B” in [9]; “salty, exhibiting more fatty fullness, and masking of undesired notes of the reference chips” in test [11]; “much fuller, more fatty, more round and natural taste, more intense sweet” in test [12]. The “taste comparison with higher-fat soup without the substance” value was “quite similar and the main difference was that sample 2 and 4 tasted slightly more sweet” in test [10] (sample 2 (2% fat+7 ppm) versus sample 3 (4% fat)); “quite similar and the main difference was that sample 2 and 4 tasted slightly more sweet” in test [10] (sample 4 (4% fat+7 ppm) versus sample 5 (6% fat)). The “taste description versus same soup without the substance” value in test [10] (sample 2: vegetable soup 2% fat+7 ppm, versus sample 1) is “more fatty, more natural, more round and more sweet”; in [10] (sample 4: vegetable soup 4% fat+7 ppm, versus sample 3), “more fatty, more natural, more round and more sweet”; in [10] (sample 6: vegetable soup 6% fat+7 ppm, versus sample 5), “more fatty, more natural, more round and more sweet”.
